Data published in patent US20250099486A1, “WOUND HEALING MEDICAMENT” (The University of Sheffield, priority 2017, published 2025).

What was measured:
endothelial cell = conditions: in vitro; reported by Merchan et al. 2010; cited from earlier work
[1] = tested on: chorionic allantoic membrane (CAM); assay: CAM assay of deoxy sugar-loaded biomaterials (in ovo, implanted day 8, scored day 14); type: in vivo, chicken (Gallus domesticus); conditions: loaded (1 mg/ml) in cross-linked chitosan/collagen hydrogels
Description: Fertilized chicken (Gallus domesticus) eggs were purchased from Big Bird (Raiwind road, Lahore, Pakistan) and incubated at 37° C. from day 2 of fertilization until day 8 in a humidified egg incubator (HHD, 435, China). At day 8, a square window (1 cm^2) was cut into the shell and removed, and a 2 cm^2 piece of the electrospun scaffold or hydrogels (16% PCL electrospun scaffold/CS/PVA hydrogel/CS/collagen hydrogels) placed onto the CAM. Each egg was implanted with one scaffold or hydrogel only.
The shell window was closed with parafilm (Bemis Flexible Packaging, USA) and sealed with adhesive tape. After implantation, eggs were placed again at 37° C. in a 40% humidified incubator until day 14. At day 14, biomaterials were retrieved and the eggs were sacrificed. Angiogenesis was quantified by taking light microscope pictures just before scaffold retrieval and then blindly scored by four assessors using histological images of the retrieved materials. The number of implanted and survived eggs is given in the caption of respective CAM assay figures.
D and L isomers of three-deoxysugars (ribose, fucose and rhamnose) were loaded onto the porous freeze gelated triethyl orthoformate (4%) covalently cross-linked chitosan/collagen (1:1) hydrogels. The hydrogels were soaked in an aqueous solution of sugars (1 mg/ml) and were further lyophilized (freeze dried) to produce porous membranes. As for the electrospun scaffold, the hydrogels were grafted into the fertilized eggs at day 8 and after day 14 the eggs were sacrificed and the effect of sugars on angiogenesis was investigated.

CAM [2] = assay: Ex-ovo CAM assay, direct application of substances; type: in vivo, chicken (Gallus domesticus); conditions: over 4 days
Description: (§1) All CAM experiments were carried out according to the Home Office, UK guidelines. Fertilised chicken eggs (Gallus domesticus) were purchased from Henry Stewart & Co. (MedEggs, Norwich, UK). The eggs were carefully wiped with 20% industrial methylated spirit (IMS) solution using hand paper towels in order to remove dirt and feathers from the shell. The eggs were then incubated at 37.5° C. until embryonic development day (EDD) 3, lying horizontally in an humidified egg incubator (RCOM King SURO, P&T Poultry, Powys, Wales).
(§2) On EDD3, the upper surface of the eggs were marked with a felt pen. The eggs were held horizontally (with the marked surface on top) and cracked on the edge of a 1000 ml glass beaker and kept close to the bottom surface of petri dishes. The embryos were then transferred gently into sterile petri dishes and kept in a humidified incubator (Binder, Tuttlingen, Germany) at 38° C.
Plastic rings (˜6.5 mm in diameter) were used as a reservoir for substances and a marker for the implantation area, were placed on the CAM, and the substances were applied as 20 μl volume onto the CAM twice a day to give a […] between EDD7 and EDD11. Images of the rings were acquired using a digital microscope at EDD11, and then 20% lens culinaris agglutinin (LCA) (Vector Laboratories, Peterborough, UK) was injected into the circulation for labelling the intravascular endothelial cells using 30G needles under a dissection microscope (Wild Heerbrugg, Heerbrugg, Switzerland). CAMs were then removed and fixed in 3.7% formaldehyde solution. Embryos were sacrificed at the end of EDD11. Fixed CAM samples were then imaged under a confocal microscope (Zeiss LSM 510 Meta, Jena, Germany) for investigating the effect of substances on the microvascular structure of the CAMs.
Blood vessels were quantified by segmentation of the images [C. Roma-Rodrigues, A. Heuer-Jungemann, A. R. Fernandes, A. G. Kanaras, P. V. Baptista, Peptide-coated gold nanoparticles for modulation of angiogenesis in vivo, IntJ Nanomedicine. 11 (2016) 2633-2639. doi: 10.2147/IJN.S108661] so as to include all discernible vessels and then counting the branch points and calculating average vessel lengths [D. Ribatti, B. Nico, A. Vacca, M. Presta, The gelatin sponge-chorioallantoic membrane assay, Nat Protoc. 1 (2006) 85-91. doi: 10.1038/nprot.2006.13, P. Brooks, A. P. Montgomery, D. Cheresh, Use of the 10-Day-Old Chick Embryo Model for Studying Angiogenesis, Integrin Protoc. 129 (1999) 257-269. doi: 10.1385/1-59259-249-X: 257] via multiple image processing steps. Firstly, the internal area of the ring was cropped, and the red, green and blue channels were split using Adobe Photoshop CS6 (ADOBE Systems Inc., San Jose, California, USA). The green channel was then imported to ImageJ (Wayne Rasband, National Institutes of Health, USA) for further analysis including unsharp mask filtering, enhancing the local contrast, noise removal and segmentation. Finally, the number of branch points was quantified using quantification software (AngioTool, National Cancer Institute, USA) (FIG. 14A) and average blood vessel lengths were calculated by using binary image histograms with known pixel/mm ratios in ImageJ (Wayne Rasband, National Institutes of Health, USA).
The percentage vascular area (VA %) of the microvasculature of CAMs were quantified using confocal images of rhodamine labelled lectin injected CAM samples as shown in FIG. 14B. To do this, images were imported to ImageJ (Wayne Rasband, National Institutes of Health, USA) and converted to binary images after filtering and smoothing processes prior to quantification. VA % was calculated using the histogram list of black and white areas in the image.
All chemicals were purchased from Sigma Aldrich unless indicated otherwise. […]

CAM [3] = assay: Ex-ovo CAM assay, implantation of E2 and 2dDR releasing PHBV scaffolds; type: in vivo, chicken (Gallus domesticus); conditions: for mean vessel count: control 23.1 (±1.24)
Description: as §1, §2
Scaffolds were cut into 5.5 mm diameter circles using a laser cutting machine (Epilog Laser Cutter, Clevedon, UK) and sterilised under UV light for 1 hour prior to implantation. Two circular scaffolds were placed on CAM at EDD8. Images of the scaffolds were acquired using a digital microscope at EDD 12 and EDD14. Microinjection of rhodamine labelled lectin into the circulation was performed, CAMs were removed and fixed in 3.7% formaldehyde solution. Embryos were then sacrificed at the end of EDD14. Angiogenesis was quantified by counting all blood vessels that converged towards the graft.
Haematoxylin and Eosin (H&E) staining was performed on cell impregnated scaffolds by modifiying a standard protocol. Briefly, fixed samples were embedded in optimal cutting temperature OCT and frozen in liquid nitrogen for 3 minutes. Sections were cut 8-10 μm thick using a cryostat (Leica Biosystems Nussloch, Germany) at −20° C. Sections were then stained with haematoxylin for 90 seconds and eosin for 5 minutes respectively. Finally H&E images were acquired under a light microscope (Motic DM-B1, Xiamen, China). The total number of blood vessels adjacent to the scaffolds were quantified by counting blood vessels in H&E sections [A. Minajeva, M. Kase, M. Saretok, A. Adamson-Raieste, S. Kase, K. Niinepuu, M Vardja, T. Asser, J. Jaal, Impact of Blood Vessel Quantity and Vascular Expression of CD133 and ICAM-1 on Survival of Glioblastoma Patients, Neurosci J. 2017 (2017) 8 pages] Briefly, all discernible blood vessels adjacent to the scaffolds were counted by two independent researchers using two independent microscopes at 10× magnification from the total of six different slides for each group and six different area of interest from each slide.

[4] = E2 and 2dDR release from PHBV scaffolds in PBS; type: physicochemical; conditions: within 7 days
Description: 10% (w/w) PHBV solution loaded was prepared prior to electrospinning. 1 g of PHBV granules (Goodfellow, London, UK) were dissolved in 1 g of methanol (Fisher Scientific, Massachusetts, USA) and 8 g of DCM (Fisher Scientific, Massachusetts, USA) in a fume hood. Four 10% PHBV solutions were prepared prior to addition of substances. Finally, 25 mg E2, 50 mg of E2, 250 mg of 2dDR and 500 mg of 2dDR were then added to each solution per 1 g of PHBV. The mixtures were magnetically stirred overnight.
Scaffolds were cut into pieces so to fit into an 6-well plate, weighed and submerged in 4 ml of PBS. The E2 and 2dDR concentrations released from each group (25 mg E2, 50 mg E2, 250 mg 2dDR, 500 mg 2dDR) were measured […] using a UV-VIS spectrophotometer (Thermo Fischer Evolution 220, Massachusetts, USA) at 238 nm for 2dDR and 220 nm for E2. Absorbance values were converted into concentrations using a standard curve of known concentrations of E2 and 2dDR.

In the case of `O=CC[C@@H](O)[C@H](O)[C@H](O)CO` [2-DG, 2-deoxy-D-Glucose], the antiangiogenic activity (endothelial cell) is listed as “inhibited endothelial capillary formation and endothelial cell migration”.
In the case of `C[C@@H](O)[C@H](O)[C@H](O)[C@@H](O)C=O` [Deoxy-D-fucose, D-fucose, reference compound], the angiogenic response [1] is reported as “no significant response”.
For `C[C@@H](O)[C@@H](O)[C@H](O)[C@H](O)C=O` [Deoxy-D-rhamnose, D-rhamnose, reference compound], the angiogenic response [1] was “only a marginal response”.
With `C[C@]12CC[C@@H]3c4ccc(O)cc4CC[C@H]3[C@@H]1CC[C@@H]2O` [E2, Oestradiol, reference compound] the “increase of number of branch points compared to controls” value (from here on “increase of number of branch points”) (CAM [2]; E2 100 ng/day) was 1.3 fold, the “increase of number of branch points” value (CAM [2]; E2 200 ng/day) was 1.5 fold and the “percentage vascular area (VA %) of microvasculature” value (CAM [2]; E2 200 ng/day, control 55.3%±3%) was 79.5%±5%. For the same compound, the “increase of number of branch points” value (CAM [2]; E2 600 ng/day) was 1.4 fold, the “increase of average vessel length compared to controls” value (CAM [2]; all E2 concentrations (100, 200, 600 ng/day)) was 1.2 fold and the mean vessel count (CAM [3]; 25 mg E2 loaded PHBV scaffolds) was 49.5 (±0.92). The mean vessel count (CAM [3]; 50 mg E2 loaded PHBV scaffolds) was 37.9 (±1.05), the “mean number of blood vessels adjacent to the scaffolds (H&E sections)” value (CAM [3]; all concentrations, compared with controls and CAM only groups) was “significantly increased” and the “number of discernible blood vessels growing towards the scaffolds in comparison with plain PHBV scaffolds” value (CAM [3]; all groups of releasing PHBV scaffolds) was “at least doubled”. For the same compound, the “total release from scaffolds, of the initial amount present in the polymer solution” value ([4]; 25 mg E2 per 1 g PHBV scaffold) was 1.3% and the “total release from scaffolds, of the initial amount present in the polymer solution” value ([4]; 50 mg E2 per 1 g PHBV scaffold) was 1.6%.
